From PubChem BioAssay AID686920 (Broad Institute, 2013)
Where “and” joins values, the source holds several entries; their conditions need not be identical. Equal entries are not always repeated.

What follows are compounds tested on A673 NR0B1-luciferase reporter, viability-normalised luminescence (assay: suppressors of NR0B1-promoter luciferase reporter, dose response, EWS/Fli inhibitor project, luciferase luminescence, A673 cells, cherry-pick (AID 686920)).

Which AC35 does the source give for `O=C(CN1C(=O)c2ccccc2S1(=O)=O)c1ccc(F)cc1` here?
The AC35 was 3.98 µM.

`CCN1/C(=C/C(C)=C/c2sc3ccccc3[n+]2CC)Sc2ccccc21` was tested. Which AC35 did it give?
Its AC35 is 1.56 µM.

`C[C@H](O)C#Cc1ccc2c(c1)O[C@@H](CN(C)Cc1ccc(-c3ccccc3)cc1)[C@H](C)CN([C@@H](C)CO)S2(=O)=O` was tested. Which AC35 did it give?
Its AC35 is 6.15 µM and 8.6 µM.

How did the AC35 turn out when `O=C(Sc1cccc2cccnc12)c1ccccc1Br` was run?
Its AC35 is 16.6 µM.

With `CCCCCCCN(c1ccccc1)[C@@H]1C[C@H]2CCCC(=O)N3CC[C@@H](C1)[C@@H]23` as the compound, how does the AC35 read?
Its AC35 is 11.8 µM.

How did the AC35 turn out when `COC1C(C)OC(OC2CC(C)(O)Cc3cc4c(c(O)c32)C(=O)c2c(O)cc3c(c2C4=O)OC2OC3(C)C(O)C(N(C)C)C2O)C(OC)C1(C)OC` (stereo not given) was run?
Its AC35 is 0.0829 µM.

How did the AC35 turn out when `COc1ccc(C(=O)CN2C(=O)c3ccccc3S2(=O)=O)cc1` was run?
The AC35 was 0.279 µM.

How did the AC35 turn out when `N/C(=C\C(=O)c1cc(Cl)ccc1O)C(Cl)(Cl)Cl` was run?
The AC35 was 4.64 µM.

Which AC35 does the source give for `COc1ccc(S(=O)(=O)Nc2ccc3c(c2)C(=O)N([C@H](C)CO)C[C@@H](C)[C@@H](CN(C)CC2CCCCC2)OCCCC[C@H](C)O3)cc1` here?
The AC35 was 14.2 µM.

For `COc1ccc(/C=C2\SC(=S)N(CCCC(=O)NNC(=O)c3ccccc3O)C2=O)cc1`, which AC35 is on record?
Its AC35 is 9.15 µM.

`CCOc1ccc(OCc2ccc(C(=O)NN=Cc3ccc[nH]3)cc2)cc1` was tested. Which AC35 did it give?
Its AC35 is 0.461 µM.

How did the AC35 turn out when `S=c1[nH]nc(-c2cc(-c3ccccc3)n[nH]2)n1/N=C/C(Br)=C/c1ccccc1` was run?
The AC35 was 10.4 µM.

Which AC35 does the source give for `C[C@@H]1CCCCO[C@@H](CN(C)C(=O)Cc2ccccc2)[C@@H](C)CN([C@@H](C)CO)C(=O)c2cc(NS(=O)(=O)c3ccc(F)cc3)ccc2O1` here?
The AC35 was 43.9 µM.

For `Cc1ccc(/C=N/Nc2ccc3ccccc3n2)o1`, which AC35 is on record?
Its AC35 is 4.21 µM.

Which AC35 does the source give for `O=C1NC(=O)N(Cc2ccco2)C(=O)/C1=C/C=C/c1ccco1` here?
The AC35 was 6.32 µM.

Which AC35 does the source give for `CCc1ccc(/C=C2\SC(=S)N(CCCC(=O)N3CCN(C)CC3)C2=O)cc1` here?
Its AC35 is 21.3 µM.

With `Cc1cc(-c2nc3ccccc3s2)ccc1N` as the compound, how does the AC35 read?
The AC35 was 7.98 µM.

With `Cc1sc2nc(CN3CCC(C)CC3)nc(Cl)c2c1C` as the compound, how does the AC35 read?
Its AC35 is 63 µM.

How did the AC35 turn out when `O=C(Nc1ccc2c(c1)OCO2)N1C[C@@H]2N[C@H](C1)C2c1ccc(C=Cc2ccccc2)cc1` (stereo not given in full) was run?
Its AC35 is 19 µM.

For `O=C(c1nnsc1S(=O)c1ccc(Cl)cc1)N1CCOCC1` (stereo not given), which AC35 is on record?
The AC35 was 14.1 µM.

Which AC35 does the source give for `C[C@@H]1CN([C@@H](C)CO)C(=O)Cc2cc(N(C)C)ccc2O[C@@H]1CN(C)Cc1ccccc1` here?
The AC35 was 7.99 µM.

With `O=C(O)c1ccc(N/N=C/c2c[nH]c3ccccc23)cc1` as the compound, how does the AC35 read?
The AC35 was 8.82 µM.

Which AC35 does the source give for `O=C(O)c1ccc(N/N=C/c2ccc(OC(=O)c3cccc(Cl)c3)cc2)cc1` here?
Its AC35 is 7.06 µM.

Which AC35 does the source give for `COc1cc(OC)cc(-c2cc3nc(C)c(CCC(=O)O)c(C)n3n2)c1` here?
Its AC35 is 0.243 µM.

With `CN(C)c1ccc(N=Nc2nc3ccccc3n2C)cc1` as the compound, how does the AC35 read?
Its AC35 is 12.5 µM.

For `CC(=O)ON=C1C=CC(=C(C#N)c2ccccc2)C=C1`, which AC35 is on record?
Its AC35 is 13.3 µM.

`C=C(C(=O)c1ccccc1)C(C)C(=C)C(=O)c1ccccc1` was tested. Which AC35 did it give?
The AC35 was 5.4 µM.

How did the AC35 turn out when `CC(C)(C)c1ccc(Oc2ccc(NC(=O)c3ccccc3C(=O)O)cn2)cc1` was run?
Its AC35 is 5.78 µM.

`Cc1cccc(/C=N/Nc2ccc3ccccc3n2)c1` was tested. Which AC35 did it give?
Its AC35 is 1.6 µM.

How did the AC35 turn out when `C[C@H]1CN([C@@H](C)CO)C(=O)Cc2cc(NC(=O)C3CC3)ccc2O[C@H]1CN(C)S(=O)(=O)c1ccc(Cl)cc1` was run?
The AC35 was 16.1 µM.

`C[C@@H]1CN([C@H](C)CO)C(=O)c2cc(N(C)C)ccc2O[C@H]1CN(C)Cc1ccc(C(=O)Nc2ccccc2N)cc1` was tested. Which AC35 did it give?
The AC35 was 9.4 µM.

Which AC35 does the source give for `Cc1ccccc1N=CC1=C(O)c2ccccc2C1=O` here?
Its AC35 is 2.72 µM.

For `CC(=O)OC1CC(OC2C(O)CC(OC3C(O)CC(OC4CCC5(C)C(CCC6C5CCC5(C)C(C7=CC(=O)OC7)CCC65O)C4)OC3C)OC2C)OC(C)C1OC1OC(CO)C(O)C(O)C1O` (stereo not given), which AC35 is on record?
Its AC35 is 0.0893 µM.

How did the AC35 turn out when `C[C@@H]1CCCCO[C@H](CN(C)Cc2ccc(C(=O)Nc3ccccc3N)cc2)[C@@H](C)CN([C@H](C)CO)C(=O)c2cc(NS(=O)(=O)c3ccc(F)cc3)ccc2O1` was run?
The AC35 was 5.53 µM.

With `C[C@@H]1CCCCO[C@H](CN(C)Cc2ccc(C(=O)Nc3ccccc3N)cc2)[C@@H](C)CN([C@@H](C)CO)C(=O)c2cc(NS(=O)(=O)c3ccc(Cl)cc3)ccc2O1` as the compound, how does the AC35 read?
Its AC35 is 6.13 µM.

With `CCC1=Nc2cc(C(=O)NCC3CCCO3)ccc2Sc2ccc(Br)cc21` (stereo not given) as the compound, how does the AC35 read?
Its AC35 is 6.5 µM.

For `COc1ccc(OC)c(/C=C/c2ccnc3ccccc23)c1`, which AC35 is on record?
The AC35 was 2.4 µM.

How did the AC35 turn out when `COc1cccc(-c2cccc(-c3nc(C(=O)NCC(F)(F)F)cc4c3[C@H](CCO)N([S@@](=O)C(C)(C)C)C4)c2)c1` was run?
Its AC35 is 3.19 µM.

For `COc1ccc(CN(C)C[C@H]2Oc3ccc(NC(=O)CCCCCC(=O)Nc4ccccc4N)cc3CC(=O)N([C@H](C)CO)C[C@H]2C)cc1`, which AC35 is on record?
Its AC35 is 15.4 µM.

With `N#CC(C#N)=C1C=CC=CN1/C(=C\c1ccco1)C(=O)c1ccc(Cl)cc1` as the compound, how does the AC35 read?
The AC35 was 7.6 µM.

Which AC35 does the source give for `Cc1c(CC(=O)NCCCC(=O)O)c(=O)oc2cc3c(cc12)CCC(C)(C)O3` here?
Its AC35 is 2.74 µM.

With `CCc1ccc(/C=C2\SC(=S)N(CCCC(=O)NCCCN3CCOCC3)C2=O)cc1` as the compound, how does the AC35 read?
Its AC35 is 1.98 µM.

For `C=CCOc1ccccc1C(=O)/C=C1/C(=O)Nc2ccccc21`, which AC35 is on record?
Its AC35 is 14.5 µM.

`C[C@@H]1CN([C@@H](C)CO)C(=O)Cc2cc(NC(=O)Nc3ccc(C(F)(F)F)cc3)ccc2O[C@@H]1CN(C)Cc1ccc(C(=O)Nc2ccccc2N)cc1` was tested. Which AC35 did it give?
Its AC35 is 7.91 µM.

How did the AC35 turn out when `CCc1ccc2oc(C(=O)N3CCN(c4ccccc4OC)CC3)cc(=O)c2c1` was run?
The AC35 was 10.7 µM.
